Results reported in patent US8772449B2, “Cell-penetrating peptides” (Toray Industries, Inc., priority 2009, dated 2014).
Read-outs that look alike come from different tables or passages of the source. Ends that are not written are not given here.

Legend:
[1] = Intranasal administration of interferon β with peptide to rats (plasma interferon β level); details: Example 6, interferon β 0.18×10^6 IU/kg alone or with 0.5 mM peptide, FIG. 7
[2] = Intestinal administration of insulin with peptide (ileal loop) to rats; format: in vivo; details: Example 8, insulin 50 IU/kg with 0.5 mM peptide, male SD rat, FIG. 10
Method: A silicone tube was […] cm distant from the ileocecal junction toward the ileum, and a feeding needle was inserted at a position about 10 cm upward therefrom. Further, sutures were passed through an area of 6 cm between these. From the feeding needle, 20 ml of phosphate buffered saline (PBS) at pH 7.4 prewarmed to 37° C. was fed at a flow rate of 5 ml/min. to allow discharging of the contents, and the silicone tube was plugged, followed by administering 1 ml of PBS prewarmed to 37° C. from the feeding needle and keeping it retained for 30 minutes. After the administration, the feeding needle was quickly plugged and the intestinal tract was returned into the abdominal cavity, followed by closing the site of incision with a clip and allowing the rat to keep still. […] The rat during the experiment was fixed on its back on a hot plate kept at 37° C. by a hot-water circulating pump to regulate the body temperature. […] Also for rats to which the same quantity of the insulin solution alone was subcutaneously administered, the blood collection and the measurement were carried out in the same manner.

[3] = Intranasal administration of insulin with peptide to rats (blood glucose, plasma insulin, bioavailability, AUC); details: Example 4, insulin 1 IU/kg alone or mixed with 0.5 mM peptide (L-body), male SD rat, FIG. 5
[4] = Intranasal administration of exendin-4 with peptide to rats (plasma exendin-4 level); details: Example 7, exendin-4 0.25 mg/kg alone or with 0.5 mM peptide, FIG. 8
nasal cavity = test: Evaluation of damage to nasal cavity (LDH leakage into washing solution); details: Example 9; mixed solution of peptide and insulin, intranasal, washing 15 minutes later, FIG. 11
HeLa cells [5] = test: Evaluation of peptide permeability into cells (fluorescein-labeled peptide incorporated into HeLa cells); format: cell-based
Method: In DMEM medium supplemented with 10% FBS, 0.2 ml of HeLa cells were plated on a 96-well glass bottom plate, and the cells were cultured at 37° C. for 48 to 72 hours to allow the cells to adhere to the bottom surface. After 3 times of washing with 200 μl of PBS, 50 μl of DMEM medium containing each of the peptides of SEQ ID NOs:1 to 6 labeled with fluorescein at the amino terminus (contract synthesis by Sigma-Genosys) at a final concentration of 5 μM and FBS at a final concentration of 10% was added to each well. The plate was incubated in a CO2 incubator for 3 hours and then washed 3 times with DMEM medium supplemented with 10% FBS, followed by addition of 50 μl of a lysis solution (10 mM Tris-HCl, 5 mM EDTA, 100 mM NaCl, 1% SDS, 100 μg/ml proteinase K) and 1 hour of incubation at room temperature, to decompose the cells and the peptides incorporated into the cells. The whole lysis solution was recovered, and the amount of fluorescein incorporated into the cells was measured using a fluorescence intensity measuring apparatus (HORIBA FLUOROMAX-3) at an excitation wavelength of 494 nm and a fluorescence wavelength of 512 nm.
(§1) Further, the amount of fluorescein incorporated into the cells was measured by the same method as in Example 1.

HeLa cells [6] = test: Evaluation of promotion of transfer of polystyrene beads into cells; format: cell-based; details: Example 3, beads alone or with peptide 1 μM, 3 hours, FIG. 3
Method: In DMEM medium supplemented with 10% FBS, 0.2 ml of HeLa cells were plated on a 96-well glass bottom plate, and the cells were cultured at 37° C. for 48 to 72 hours to allow the cells to adhere to the bottom surface. After 3 times of washing with 200 μl of PBS, 50 μl of DMEM medium containing each of the peptides of SEQ ID NOs:1 to 6 labeled with fluorescein at the amino terminus (contract synthesis by Sigma-Genosys) at a final concentration of 1 μM, fluorescent polystyrene beads (Fluorospheres Carboxylated Microbeads, 0.1 μm; manufactured by Molecular probes, Inc.) at a final concentration of 1 μl/well and 10% FBS was added to each well. The plate was incubated in a CO2 incubator for 3 hours and then washed 3 times with DMEM medium supplemented with 10% FBS, followed by addition of 50 μl of a lysis solution (10 mM Tris-HCl, 5 mM EDTA, 100 mM NaCl, 1% SDS, 100 μg/ml proteinase K) and 1 hour of incubation at room temperature, to decompose the cells. The whole lysis solution was recovered, and the amount of fluorescent polystyrene beads incorporated into the cells was measured using a fluorescence intensity measuring apparatus at an excitation wavelength of 580 nm and a fluorescence wavelength of 605 nm.

HeLa cells [7] = test: Evaluation of promotion of insulin transfer into cells (rhodamine-labeled insulin incorporated, fluorescence intensity of lysate); format: cell-based; details: for incorporation of rhodamine-labeled insulin into the cells (in words): Example 2, rhodamine-labeled human insulin 100 μg/ml alone or with peptide, 3 hours, FIG. 2
Method: In DMEM medium supplemented with 10% FBS, 0.2 ml of HeLa cells were plated on a 96-well glass bottom plate, and the cells were cultured at 37° C. for 48 to 72 hours to allow the cells to adhere to the bottom surface.
(§2) The rhodamine-labeled insulin was prepared by the following method. […] To the resulting solution, 4 mg of NHS-rhodamine (Pierce) dissolved in 0.5 ml of DMSO was added, and the reaction was allowed to proceed at room temperature overnight.
as §1

HeLa cells [8] = test: Localization of rhodamine-labeled insulin in HeLa cells by confocal laser microscope; format: cell-based; details: Example 2, peptide added together with rhodamine-labeled insulin, FIG. 12
Method: as §2

[9] = rat, in vivo, 0.25 mg/kg

For KWFRIQMQIKKWRNRR [SEQ ID NO:4], the “plasma interferon β level after intranasal administration” value [1] was “transfer of interferon β into the blood from immediately after the administration” and the “blood insulin level after intestinal administration, compared to insulin alone” value [2] was “evident increase”.

For “RWFKIQMQIRRWKNKK [SEQ ID NO:1, R W F K I Q M Q I R R W K N K K]”, the “blood insulin level after intranasal administration” value [3] was “transfer of insulin into the blood was observed from immediately after the administration”, the “plasma interferon β level after intranasal administration” value [1] was “transfer of interferon β into the blood from immediately after the administration” and the “plasma exendin-4 level after intranasal administration” value [4] was “transfer of exendin-4 into the blood from immediately after the administration”. For the same substance, the “blood insulin level after intestinal administration, compared to insulin alone” value [2] was “evident increase” and the “release of LDH from the nasal cavity, compared to 5% (w/v) sodium taurodeoxycholate” value (nasal cavity) was “significantly lower”.

In the case of “SEQ ID NO:6: Random peptide, cell membrane non-permeable; sequence not printed (EYDLSTAGGAAAC; Synthetic peptide random peptide)”, the “incorporation of fluorescein-labeled peptide into the cells (in words)” value (HeLa cells [5]; Example 1, fluorescein-labeled peptide 5 μM, 3 hours, FIG. 1) is reported as “hardly incorporated into the cells”, the “fluorescein incorporated into the cells, of the fluorescein added” value (HeLa cells [5]; Example 12, fluorescein-labeled peptides, incubation 5 hours, FIG. 15) is reported as “about 0.2%” and the “incorporation of fluorescent polystyrene beads into the cells (in words)” value (HeLa cells [6]) is reported as “almost no incorporation”. The “incorporation of rhodamine-labeled insulin into the cells (in words)” value (HeLa cells [7]) was “almost no incorporation”, the “rhodamine-labeled insulin incorporated into the cells, of the amount added” value (HeLa cells [7]; Example 12, fluorescein-labeled peptides added together with rhodamine-labeled insulin, incubation 5 hours, FIG. 16) was “about 0.2%” and the “permeation of rhodamine-labeled insulin into the cells, confocal laser microscope” value (HeLa cells [8]) was “did not allow permeation”.

In the case of exendin-4, the “plasma exendin-4 level after intranasal administration” value [9] is reported as “almost no increase”.

In the case of “rhodamine-labeled insulin: human insulin reacted with NHS-rhodamine (Pierce); fluorescent probe, added alone”, the “incorporation of rhodamine-labeled insulin into the cells (in words)” value (HeLa cells [7]) is reported as “almost no incorporation”.
